{"source": "ChEMBL document CHEMBL5634174", "about": "“Biological evaluation of sulfonate and sulfate analogues of lithocholic acid: A bioisosterism-guided approach towards the discovery of potential sialyltransferase inhibitors for antimetastatic study” (Bioorg Med Chem Lett, 2024)", "key": {"[1]": {"biological_target": "T1, Sialyltransferase ST3Gal-I (Rattus norvegicus, UniProt Q6H8N0)", "T1 sequence (Q6H8N0 whole entry)": "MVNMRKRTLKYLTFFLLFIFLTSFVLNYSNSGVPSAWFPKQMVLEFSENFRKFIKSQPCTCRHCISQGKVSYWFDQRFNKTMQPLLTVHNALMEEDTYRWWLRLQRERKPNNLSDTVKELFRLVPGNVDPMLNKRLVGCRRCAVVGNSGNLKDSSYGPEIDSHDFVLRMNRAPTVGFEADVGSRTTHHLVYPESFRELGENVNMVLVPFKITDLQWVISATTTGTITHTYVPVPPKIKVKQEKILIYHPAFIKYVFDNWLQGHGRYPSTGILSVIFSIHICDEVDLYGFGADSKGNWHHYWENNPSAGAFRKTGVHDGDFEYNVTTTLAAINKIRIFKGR", "test": "Inhibition of rat ST3GAL1 by UPLC-based assay"}, "MDA-MB-231 [2]": {"test_system": "MDA-MB-231", "test": "Inhibition of cell invasion in human MDA-MB-231 cells at 60 uM", "assay_type": "functional, cell-based"}, "MDA-MB-231 [3]": {"test_system": "MDA-MB-231", "test": "Effect on total paxillin expression level in human MDA-MB-231 cells at 20 to 80 uM incubated for 2 hrs by Western blot analysis", "assay_type": "functional, cell-based", "conditions": "dose 20-80 µM"}, "MDA-MB-231 [4]": {"test_system": "MDA-MB-231", "test": "Inhibition of cell invasion in human MDA-MB-231 cells assessed as reduction in cell adhesion to collagen IV at 60 uM incubated for 48 hrs", "assay_type": "functional, cell-based"}, "[5]": {"biological_target": "T2, Beta-galactoside alpha-2,6-sialyltransferase 1 (Homo sapiens) (UniProt P15907)", "T2 sequence (whole entry)": "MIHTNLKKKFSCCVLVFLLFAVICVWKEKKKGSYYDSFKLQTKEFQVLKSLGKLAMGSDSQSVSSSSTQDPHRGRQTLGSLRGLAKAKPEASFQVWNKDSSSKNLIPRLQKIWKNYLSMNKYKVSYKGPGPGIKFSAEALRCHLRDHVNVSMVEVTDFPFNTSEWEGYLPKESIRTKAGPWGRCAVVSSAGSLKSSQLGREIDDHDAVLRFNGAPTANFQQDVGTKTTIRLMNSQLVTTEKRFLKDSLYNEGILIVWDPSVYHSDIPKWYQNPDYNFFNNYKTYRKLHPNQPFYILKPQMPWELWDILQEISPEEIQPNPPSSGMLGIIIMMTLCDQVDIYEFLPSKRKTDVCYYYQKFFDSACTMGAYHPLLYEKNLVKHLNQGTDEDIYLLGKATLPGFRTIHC", "test": "Inhibition of recombinant human N-terminal His tagged ST6GAL1 (44 to 406 residues) at 50 uM by UPLC-based assay relative to control"}, "[6]": {"biological_target": "T3, Beta-galactoside alpha-2,6-sialyltransferase 1 (Homo sapiens, UniProt P15907)", "T3 sequence (P15907 whole entry)": "T2 sequence (whole entry)", "test": "Inhibition of recombinant human N-terminal His tagged ST6GAL1 (44 to 406 residues) by UPLC-based assay"}, "[7]": {"biological_target": "T4, Sialyltransferase ST3Gal-I (Rattus norvegicus) (UniProt Q6H8N0)", "T4 sequence (whole entry)": "T1 sequence (Q6H8N0 whole entry)", "test": "Inhibition of rat ST3GAL1 at 500 uM by UPLC-based assay relative to control"}, "[8]": {"biological_target": "T4, Sialyltransferase ST3Gal-I (Rattus norvegicus)", "test": "Inhibition of rat ST3GAL1 at 1000 uM by UPLC-based assay relative to control"}, "Paxillin (Homo sapiens)": {"biological_target": "Paxillin (Homo sapiens) (UniProt P49023)", "sequence (P49023 whole entry)": "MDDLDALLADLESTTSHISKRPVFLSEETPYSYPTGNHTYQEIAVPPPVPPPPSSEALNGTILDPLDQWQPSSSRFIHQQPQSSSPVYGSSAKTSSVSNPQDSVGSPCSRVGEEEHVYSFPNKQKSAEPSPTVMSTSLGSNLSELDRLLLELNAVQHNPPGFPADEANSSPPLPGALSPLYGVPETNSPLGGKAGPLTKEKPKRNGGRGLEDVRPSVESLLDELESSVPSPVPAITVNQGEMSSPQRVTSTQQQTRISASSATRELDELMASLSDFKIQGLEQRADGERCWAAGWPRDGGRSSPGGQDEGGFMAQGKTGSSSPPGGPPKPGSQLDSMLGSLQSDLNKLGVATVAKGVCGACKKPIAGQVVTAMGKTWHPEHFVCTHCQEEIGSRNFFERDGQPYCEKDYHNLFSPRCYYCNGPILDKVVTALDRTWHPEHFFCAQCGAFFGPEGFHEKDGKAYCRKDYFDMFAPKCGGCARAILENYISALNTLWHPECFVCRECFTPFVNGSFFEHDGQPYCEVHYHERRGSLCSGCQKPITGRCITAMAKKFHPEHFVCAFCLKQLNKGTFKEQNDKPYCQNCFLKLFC", "test": "Inhibition of paxillin phosphorylation at Y118 residue in human MDA-MB-231 cells incubated for 2 hrs by Western blot analysis", "assay_type": "cell-based", "conditions": "dose 20-80 µM"}}, "note": "Activity calls are given as the source filed them. The calls are words filed in the database; no cut-off is given here.", "data": [{"smiles": "C[C@H](CCCOS(=O)(=O)O)[C@H]1CC[C@H]2[C@@H]3CC[C@@H]4C[C@H](O)CC[C@]4(C)[C@H]3CC[C@]12C", "values": [{"measurement": "IC50", "setting": "[1]", "result": "> 1000", "unit": "µM"}, {"measurement": "inhibition", "setting": "MDA-MB-231 [2]", "result": "Active"}, {"measurement": "Activity", "setting": "MDA-MB-231 [3]", "result": "inactive"}, {"measurement": "inhibition", "setting": "MDA-MB-231 [4]", "result": "Active"}, {"measurement": "inhibition", "setting": "[5]", "result": 100, "unit": "%"}, {"measurement": "IC50", "setting": "[6]", "result": 16.7, "unit": "µM"}, {"measurement": "inhibition", "setting": "[7]", "result": 3, "unit": "%"}, {"measurement": "inhibition", "setting": "[8]", "result": 15, "unit": "%"}, {"measurement": "inhibition", "setting": "Paxillin (Homo sapiens)", "result": "Dose-Dependent Effect"}]}]}
